Data published in PMC6300878, “In vitro antiplasmodial activity, pharmacokinetic profiles and interference in isoprenoid pathway of 2-aniline-3-hydroxy-1.4-naphthoquinone derivatives” (Malaria Journal, 2018).

Columns and labels:
[1] = solution with a maximum of 1% DMSO
[2] = test system: Plasmodium berghei; design: method as in PMID 23850202; details: murine Plasmodium berghei model; cited from earlier work
[3] = test system: menaquinone (MQ) biosynthesis
Method: (§1) A flask was kept untreated and is considered the positive control. After 36 h, the culture was labeled with [1-(n)-^3H]GGPP (3.125 µCi/ml) in normal RPMI 1640 medium [32] during the last 16 h. The schizonts were purified by magnetic column (MACS Separation Columns “CS”, Miltenyi Biotec) [33]. The parasitaemia was estimated by microscopic examination of Giemsa-stained smears and the volume was adjusted of purified culture, according to the control, so that equal numbers of treated and untreated parasites were applied. After metabolic labelling and purification, lyophilized schizonts were used for extraction of MQ and TC. The final extract was injected into the HPLC-RT [34].
(§2) The molecules of MQ and TC were purified by an isocratic system with mobile phase methanol: ethanol (50:50 v/v), flow 0.5 ml/min and detection performed by UV absorption spectrum at a wavelength equal to 270 nm. The mobile phase was filtered on a PTFE (solvent A) and NYLON (solvent B) membrane of 0.20 µM. Radioactive fractions were dried by evaporation at 24 °C and resuspended in scintillation fluid. Quantification of the radioactivity (c.p.m.) was performed on the device Beckman 5000 β-radiation scintillation counter (Beckman, CA, USA) [34].
(§3) The IC50 was estimated by linear interpolation as compared to the drug-free controls, using the software GraphPad PRISM software. […]

[4] = test system: tocopherol (TC) biosynthesis
Method: as §1, §2, §3

[5] = cited from earlier work

Compound	Solubility [1]	Antiplasmodial activity in vivo [2]	inhibition [3] [%]	inhibition [4] [%]	Binding to plasma proteins [5]	Bioavailability [5]	Biopharmaceutics Classification (BCS) class [5]
O=C1C(O)=C(Nc2ccccc2)C(=O)c2ccccc21 [4a]	soluble	interesting antiplasmodial activity					
COc1ccc(NC2=C(O)C(=O)c3ccccc3C2=O)cc1 [4c]	soluble	interesting antiplasmodial activity	58.1	49.6			
O=C1C(O)=C([C@H]2CC[C@H](c3ccc(Cl)cc3)CC2)C(=O)c2ccccc21 [atovaquone]					high binding to plasma proteins	low bioavailability	class II
